The text below walks through data of US12115208B2, “Small-molecule adjuvants for antibiotics to address antibiotic resistance” (HIGH POINT UNIVERSITY, priority 2017, dated 2024).

In brackets after ≈: the same amount, converted by molar mass.

The test system of experiment [1] is S. aureus USA300 (MRSA). Put plainly: Antibiotic repotentiation (antibiotic MIC with/without compound). Type of experiment: cell-based, Staphylococcus aureus. As to conditions: for MIC of antibiotic: MRSA USA300; for Oxacillin MIC / Fold Reduction: +50 μM compound, S. aureus USA300 (MRSA); for Fold Reduction: oxacillin MIC. How it is done:
(§1) The overnight culture was diluted into fresh CAMHB to a concentration of 5×10^5 CFU/ml. […] On the same plate, a standard microdilution MIC with the tested antibiotics and no added compound was also performed to compare the antibiotic MIC in the presence and absence of compound. […] Fold reductions were calculated by dividing the MIC of the antibiotic without compound by the MIC of the antibiotic in the presence of compound.
(§2) The compounds were then analyzed for antibiotic repotentiation activity. […] The tested strains included USA300, which is a common and particularly virulent strain of community-acquired MRSA.

Experiment [2] has as its system S. aureus 43300 (MRSA). Described as above. Type of experiment: cell-based, Staphylococcus aureus. How it is done: as §1, §2
Experiment [3] has as its system S. aureus USA100 (MRSA). The description is as above. Type of experiment: cell-based, Staphylococcus aureus. How it is done:
as §1

Experiment [4] has as its system S. aureus NR-49120 (VRSA). The experiment is described as above. Type of experiment: cell-based, Staphylococcus aureus. As to conditions: VRSA NR-49120; for Fold Reduction: antibiotic MIC. How it is done: as §1
Experiment [5] relates to MRSA 43300 biofilm. Put plainly: Biofilm inhibition, crystal violet assay. Type of experiment: cell-based, Staphylococcus aureus. To be noted: 30 h. How it is done: (§3) A standard static crystal violet assay was used to quantify biofilm inhibition.^45 Cultures of S. aureus or S. epidermidis were grown overnight in TSBG (tryptic soy broth with 5% glucose) at 37° C. with shaking. These cultures were used to inoculate fresh TSBG to a calculated optical density of 0.01 at 600 nm (OD600). […] Untreated aliquots were used as a positive control and water served as a negative control. 100 μl of these suspensions were added to the wells of a 96-well polyvinylchloride microtiter plate. […] After incubation, media was discarded and the plates were washed with water to remove non-adherent cells. Adherent biofilms were stained with 110 μl of crystal violet (0.1% in water) and incubated at room temperature for thirty minutes. The crystal violet staining solution was discarded and plates were washed with water to remove excess stain. The resulting stained biofilms were solubilized with 200 μL of 95% ethanol for 10 minutes. 125 μl of the ethanol solutions were transferred to a clear polystyrene microtiter plate for evaluation. Absorbance at 540 nm was recorded using a BioTek Synergy H1 microplate reader. The absorbance of the negative control lanes was subtracted from the experimental values to account for background staining. Percent inhibition was calculated by comparison of the absorbance values of control versus treated wells under identical conditions.
Antibiotic resistance and biofilm formation share similar regulatory mechanisms. […] Biofilm inhibition was first assessed in S. aureus 43300, a methicillin-resistant strain (see Table 18). As described in Materials and Methods, a standard crystal violet assay was used to assess biofilm inhibition by the tested compounds. The IC50 is described as the compound concentration required to inhibit 50% of biofilm formation. The standard deviation is calculated from at least 3 independent experiments.

Experiment [6] has as its system S. epidermidis ATCC 49461 biofilm. Briefly: Biofilm inhibition, crystal violet assay. Type of experiment: cell-based, Staphylococcus epidermidis. As to conditions: 30 h, read-out: Inhibition of biofilm formation IC50. How it is done:
as §3

Experiment [7] has as its system S. aureus ATCC 43300 (MRSA). Briefly: Minimum inhibitory concentration, broth microdilution. Type of experiment: cell-based, Staphylococcus aureus. As to conditions: compound alone; S. aureus ATCC 43300 (MRSA); CAMHB, 18 h; read-out: MIC. How it is done: as §2
In general terms: In broth dilution the organism is exposed to a series of concentrations in liquid medium.

For experiment [8], the system named is S. aureus USA100 (MRSA). Briefly: microbe, parasite or virus in culture. To be noted: compound alone, CAMHB, 18 h. Type of experiment: cell-based, Staphylococcus aureus.
The subject of experiment [9] is S. aureus USA300 (MRSA). Put plainly: Minimum inhibitory concentration, broth microdilution. Type of experiment: cell-based, Staphylococcus aureus. To be noted: compound alone; S. aureus USA300 (MRSA); CAMHB, 18 h; read-out: MIC. The method, then:
as §2

The mark [10] stands for this setting: +Amoxapine (150 μM), S. aureus 43300 (MRSA).
Setting [11] is: antibiotic MIC, +Amoxapine (150 μM), S. aureus 43300 (MRSA).
[12] abbreviates: antibiotic MIC, +Loratadine 25 μM, MRSA 43300.
Where [13] appears, read: antibiotic MIC, +Loratadine 50 μM, MRSA 43300.
Where [14] appears, read: antibiotic alone, no compound, S. aureus 43300 (MRSA).
Setting [15] is: antibiotic alone, S. aureus ATCC 43300 (MRSA).
Setting [16] is: antibiotic MIC, +Loratadine 25 μM, MRSA USA100.
The mark [17] stands for this setting: antibiotic MIC, +Loratadine 50 μM, MRSA USA100.
Setting [18] is: oxacillin MIC, +50 μM compound, S. aureus 43300 (MRSA).
Setting [19] is: +50 μM compound, S. aureus 43300 (MRSA).
Where [20] appears, read: +50 μM compound, S. aureus USA100 (MRSA).
Where [21] appears, read: oxacillin MIC, +50 μM compound, S. aureus USA100 (MRSA).

With `CC1(C)S[C@@H]2[C@H](NC(=O)[C@H](N)c3ccccc3)C(=O)N2[C@H]1C(=O)O` [Ampicillin], the MIC of antibiotic is 8 µg/mL in experiment [1] (+Loratadine 25 μM); 0.5 µg/mL in experiment [1] (+Loratadine 50 μM); 8 µg/mL in experiment [1] (antibiotic alone); 4 µg/mL in [2] (setting [10]); 16/8 in [2] (+Loratadine 25 μM, MRSA 43300); 1/2 in experiment [2] (+Loratadine 50 μM, MRSA 43300). For the same compound, the MIC of antibiotic in experiment [2] (setting [14]) was 32 µg/mL; in [2] (setting [15]), 16 µg/mL; in experiment [3] (+Loratadine 25 μM, MRSA USA100) it was 16 µg/mL; in [3] (+Loratadine 50 μM, MRSA USA100), 1/2; in experiment [3] (antibiotic alone, MRSA USA100) it was 32 µg/mL; in experiment [4] (+Loratadine 25 μM), 16 µg/mL. Moreover, the results for the MIC of antibiotic in experiment [4] (+Loratadine 50 μM) and in experiment [4] (antibiotic alone) were 4 µg/mL and 16 µg/mL, respectively. The “Fold Reduction” value was 8 in [2] (setting [11]); 1/2 in experiment [2] (setting [12]); 4 in [2] (setting [13]); 2 in [3] (setting [16]); 32/16 in [3] (setting [17]); 1 in [4] (+Loratadine 25 μM). In addition, the “Fold Reduction” value in experiment [4] (+Loratadine 50 μM) amounted to 4.

As for `Cc1nnc(SCC2=C(C(=O)O)N3C(=O)[C@@H](NC(=O)Cn4cnnn4)[C@H]3SC2)s1` [Cefazolin], the MIC of antibiotic in experiment [1] (+Loratadine 25 μM) was determined as 4 µg/mL; in experiment [1] (+Loratadine 50 μM), 1 µg/mL; in [1] (antibiotic alone), 32 µg/mL; in experiment [2] (setting [10]), 0.5 µg/mL; in experiment [2] (+Loratadine 25 μM, MRSA 43300), 16 µg/mL; in experiment [2] (+Loratadine 50 μM, MRSA 43300), 1 µg/mL. In addition, the MIC of antibiotic in [2] (setting [14]) came to 16 µg/mL; in experiment [2] (setting [15]) it was 64 µg/mL; in experiment [3] (+Loratadine 25 μM, MRSA USA100), 128 µg/mL; in experiment [3] (+Loratadine 50 μM, MRSA USA100), 1 µg/mL; in experiment [3] (antibiotic alone, MRSA USA100), 256 µg/mL; in experiment [4] (+Loratadine 25 μM) it was 32 µg/mL. Moreover, the MIC of antibiotic in experiment [4] (+Loratadine 50 μM) worked out at 8 µg/mL; in experiment [4] (antibiotic alone) it was 128 µg/mL. Also, the “Fold Reduction” value in [2] (setting [11]) came to 32; in [2] (setting [12]) it was 4; in experiment [2] (setting [13]), 64; in [3] (setting [16]), 2; in experiment [3] (setting [17]), 256; in experiment [4] (+Loratadine 25 μM) it was 4. In addition, in [4] (+Loratadine 50 μM), the “Fold Reduction” value is recorded as 16.

Take `Clc1ccc2c(c1)Nc1ccccc1CC2` [Compound I-5, 3-chloro-10,11-dihydro-5H-dibenzo[b,f]azepine]: in experiment [2] (setting [18]), the “Fold Reduction” value was determined as 16. Also, in experiment [5] (Staphylococcus aureus, MRSA), the 50% inhibitory concentration (IC50) – broadly, the point on the concentration scale where inhibition reaches its midpoint – turned out to be 18.7 µM.

For `Clc1cc2cccnc2c2ncccc12` [Compound V-6], the “Oxacillin MIC” value in [2] (+31.25 μM compound, S. aureus 43300 (MRSA)) worked out at 4 µg/mL. The “Fold Reduction” value in experiment [2] (oxacillin MIC, +31.25 μM compound, S. aureus 43300 (MRSA)) is 8. Besides, the 50% inhibitory concentration (IC50) in [6] was determined as 57.1 µM; in experiment [5], 184 µM. The MIC in experiment [7] is recorded as 125 µM.

As for `c1ccc2c(c1)[nH]c1ccccc12` [IV-1], the “Oxacillin MIC” value worked out at 64 µg/mL in experiment [1], 32 µg/mL in experiment [2] (setting [19]) and 512 µg/mL in experiment [3] (setting [20]). Besides, the “Fold Reduction” value in experiment [1], in experiment [2] (setting [18]) and in experiment [3] (setting [21]) was 1 each time. Further, the MIC in [8], in [7] and in experiment [9] was over 200 µM each time.

With `Brc1cccc2c1[nH]c1ccccc12` [IV-2], the “Oxacillin MIC” value is 16/8 in [1], 4 µg/mL in experiment [2] (setting [19]) and 8 µg/mL in experiment [3] (setting [20]). In addition, the “Fold Reduction” value was 4/8 in experiment [1], 8 in experiment [2] (setting [18]) and 64 in [3] (setting [21]). In addition, the MIC in experiment [8], in experiment [7] and in experiment [9] was over 200 µM in each case.

Consider `Brc1ccc2[nH]c3ccccc3c2c1` [IV-3], for which the results for the “Oxacillin MIC” value in [1], in experiment [2] (setting [19]) and in experiment [3] (setting [20]) were 64 µg/mL, 16 µg/mL and 512 µg/mL, respectively. Besides, the “Fold Reduction” value stood at 1 in experiment [1], 2 in [2] (setting [18]) and 1 in [3] (setting [21]). The MIC in experiment [8], in [7] and in experiment [9] was over 200 µM throughout.

As for `Brc1cccc2[nH]c3ccccc3c12` [IV-4], the “Oxacillin MIC” value in experiment [1] worked out at 2 µg/mL; in experiment [2] (setting [19]), 32 µg/mL; in experiment [3] (setting [20]), 4 µg/mL. Moreover, the figures for the “Fold Reduction” value in [1], in experiment [2] (setting [18]) and in experiment [3] (setting [21]) were 32, 1 and 128, respectively. Further, the MIC is on record as 100 µM (≈ 24.6 µg/mL) in experiment [8], 200 µM in [7] and 100 µM in experiment [9].

With `Brc1ccc2[nH]c3ccc(Br)cc3c2c1` [IV-5], the “Oxacillin MIC” value in experiment [1] is 32 µg/mL; in experiment [2] (setting [19]) it was 8/4; in [3] (setting [20]), 4 µg/mL. The “Fold Reduction” value was 2 in [1], 4/8 in experiment [2] (setting [18]) and 128 in experiment [3] (setting [21]). The MIC in [8], in experiment [7] and in [9] was over 200 µM in each case.

As for `CN[C@H](CC(C)C)C(=O)N[C@H]1C(=O)N[C@@H](CC(N)=O)C(=O)N[C@H]2C(=O)N[C@H]3C(=O)N[C@H](C(=O)N[C@H](C(=O)O)c4cc(O)cc(O)c4-c4cc3ccc4O)[C@H](O)c3ccc(c(Cl)c3)Oc3cc2cc(c3O[C@@H]2O[C@H](CO)[C@@H](O)[C@H](O)[C@H]2O[C@H]2C[C@](C)(N)[C@H](O)[C@H](C)O2)Oc2ccc(cc2Cl)[C@H]1O` [Vancomycin], the MIC of antibiotic in experiment [1] (+Loratadine 25 μM) turned out to be 1 µg/mL; in experiment [1] (+Loratadine 50 μM) it was 1 µg/mL; in experiment [1] (antibiotic alone), 1 µg/mL; in experiment [2] (setting [10]), 2 µg/mL; in experiment [2] (+Loratadine 25 μM, MRSA 43300), 1 µg/mL; in experiment [2] (+Loratadine 50 μM, MRSA 43300), 1 µg/mL. Also, the MIC of antibiotic in experiment [2] (setting [14]) was determined as 2 µg/mL; in experiment [2] (setting [15]) it was 1 µg/mL; in experiment [3] (+Loratadine 25 μM, MRSA USA100) it was 2 µg/mL; in experiment [3] (+Loratadine 50 μM, MRSA USA100), 2 µg/mL; in [3] (antibiotic alone, MRSA USA100) it was 2 µg/mL; in experiment [4] (+Loratadine 25 μM), 512 µg/mL. The results for the MIC of antibiotic in [4] (+Loratadine 50 μM) and in experiment [4] (antibiotic alone) were 128 µg/mL and 1024 µg/mL, respectively. For the same compound, the “Fold Reduction” value in [2] (setting [11]) is 1; in [2] (setting [12]) it was 1; in [2] (setting [13]), 1; in [3] (setting [16]), 1; in experiment [3] (setting [17]), 1; in experiment [4] (+Loratadine 25 μM), 2. In addition, the “Fold Reduction” value in [4] (+Loratadine 50 μM) was 8.
